According to ChEMBL document CHEMBL5390237, “Discovery of Selective Histone Deacetylase 1 and 2 Inhibitors: Screening of a Focused Library Constructed by Click Chemistry, Kinetic Binding Analysis, and Biological Evaluation” (J Med Chem, 2023):

biological target: Histone deacetylase 2 (Homo sapiens, UniProt Q92769); experiment: Inhibition of full-length recombinant human C-terminal GST tagged HDAC2 expressed in Sf9 insect cells using aminoluciferin peptide substrate at 100 nM preincubated for 3 hrs followed by substrate addition and measured after 30 mins by HDAC-Glo I/II chemiluminescence assay; conditions: time 3.5 hrs
Sequence (Q92769 whole entry): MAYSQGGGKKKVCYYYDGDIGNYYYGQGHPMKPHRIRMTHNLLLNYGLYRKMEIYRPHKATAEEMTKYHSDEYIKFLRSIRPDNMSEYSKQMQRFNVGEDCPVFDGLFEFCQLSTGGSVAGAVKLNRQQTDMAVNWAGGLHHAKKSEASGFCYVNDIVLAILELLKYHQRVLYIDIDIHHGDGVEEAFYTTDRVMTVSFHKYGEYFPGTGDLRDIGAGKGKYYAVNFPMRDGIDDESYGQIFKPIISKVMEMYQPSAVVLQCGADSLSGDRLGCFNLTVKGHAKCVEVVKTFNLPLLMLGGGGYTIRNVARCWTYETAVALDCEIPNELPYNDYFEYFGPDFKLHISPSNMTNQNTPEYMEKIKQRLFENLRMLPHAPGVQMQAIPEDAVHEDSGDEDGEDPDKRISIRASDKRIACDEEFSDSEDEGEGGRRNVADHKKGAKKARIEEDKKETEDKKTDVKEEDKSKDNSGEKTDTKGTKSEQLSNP

Going from `Cc1ccccc1CCn1cc(-c2ccc(C(=O)Nc3cc(-c4cccs4)ccc3N)s2)nn1` to `Cc1ccc(CCn2cc(-c3ccc(C(=O)Nc4cc(-c5cccs5)ccc4N)s3)nn2)cc1`, the inhibition rises from 14% to 22%.

First: Nc1ccc(-c2ccccc2)cc1NC(=O)c1cn(CCc2ccc(C(=O)O)cc2)nn1
Second: Nc1ccc(-c2ccccc2)cc1NC(=O)CCc1cn(CCc2ccc(C(=O)O)cc2)nn1
The inhibition of the first is lower: 9% for the first, 33% for the second.

Going from `Cc1csc(CCn2cc(CCC(=O)Nc3cc(-c4cccs4)ccc3N)nn2)n1` to `Cc1csc(CCn2cc(-c3ccc(C(=O)Nc4cc(-c5cccs5)ccc4N)s3)nn2)n1`, the inhibition rises from 30% to 74%.

`Nc1ccc(-c2ccsc2)cc1NC(=O)c1cn(CCc2ccccc2C(F)(F)F)nn1` and `Nc1ccc(-c2ccccc2)cc1NC(=O)c1cn(CCc2ccccc2C(F)(F)F)nn1` are the same in inhibition: 0% for the first, 0% for the second.

Going from `Nc1ccc(-c2cccs2)cc1NC(=O)c1ccc(-c2cn(CCCCCCC(=O)O)nn2)s1` to `Nc1ccc(-c2cccs2)cc1NC(=O)c1cccc(-c2cn(CCCCCCC(=O)O)nn2)c1`, the inhibition rises from 28% to 30%.

First: Nc1ccc(-c2cccnc2)cc1NC(=O)CCc1cn(CCN2CCc3ccccc3C2)nn1
Second: Nc1ccc(-c2cccnc2)cc1NC(=O)CCc1cn(CCc2ccccc2[N+](=O)[O-])nn1
The inhibition of the first is higher: 5% for the first, 1% for the second.

First: Nc1ccc(-c2ccc(F)cc2)cc1NC(=O)c1cn(CCCCCC(=O)O)nn1
Second: Nc1ccc(-c2ccsc2)cc1NC(=O)c1cn(CCCCCCCC(=O)O)nn1
The inhibition of the first is higher: 20% for the first, 10% for the second.

Going from `Nc1ccc(-c2cccs2)cc1NC(=O)c1cn(CCc2ccc(Cl)cc2)nn1` to `Nc1ccc(-c2cccs2)cc1NC(=O)c1cn(CCc2ccc(C(F)(F)F)cc2)nn1`, the inhibition rises from 0% to 9%.

Going from `Cc1ccc(CCn2cc(CCC(=O)Nc3cc(-c4ccc(F)cc4)ccc3N)nn2)cc1` to `Nc1ccc(-c2ccc(F)cc2)cc1NC(=O)CCc1cn(CCc2ccsc2)nn1`, the inhibition falls from 25% to 16%.

`Nc1ccc(-c2cccs2)cc1NC(=O)c1cn(-c2cccc3ccccc23)nn1` and `Nc1ccc(-c2ccsc2)cc1NC(=O)c1cn(-c2cccc3ccccc23)nn1` are the same in inhibition: 0% for the first, 0% for the second.

Compared with `Nc1ccc(-c2cccnc2)cc1NC(=O)CCc1cn(Cc2ccc(OC(F)(F)F)cc2)nn1`, `Nc1ccc(-c2cccnc2)cc1NC(=O)CCc1cn(Cc2ccc(C(=O)O)cc2)nn1` is higher in inhibition: 3% for the first, 7% for the second.

`Nc1ccc(-c2ccccc2)cc1NC(=O)CCc1cn(CCC2CCCC2)nn1` and `Nc1ccc(-c2ccccc2)cc1NC(=O)CCc1cn(CCC2CCCCC2)nn1` are the same in inhibition: 0% for the first, 0% for the second.

First: Nc1ccc(-c2cccnc2)cc1NC(=O)CCc1cn(/C=C/c2ccccc2)nn1
Second: Nc1ccc(-c2cccnc2)cc1NC(=O)CCc1cn(-c2cccc3ccccc23)nn1
The inhibition of the first is higher: 7% for the first, 0% for the second.

Going from `Nc1ccc(-c2cccs2)cc1NC(=O)c1cn(-c2ccc([N+](=O)[O-])cc2)nn1` to `Nc1ccc(-c2cccs2)cc1NC(=O)c1cccc(-c2cn(-c3ccc([N+](=O)[O-])cc3)nn2)c1`, the inhibition rises from 0% to 5%.

`Nc1ccc(-c2cccs2)cc1NC(=O)c1ccc(-c2cn(Cc3cccc4ccccc34)nn2)cc1` and `Nc1ccc(-c2cccs2)cc1NC(=O)c1cccc(-c2cn(Cc3cccc4ccccc34)nn2)c1` are the same in inhibition: 14% for the first, 14% for the second.

Compared with `Nc1ccc(-c2cccs2)cc1NC(=O)c1ccc(-c2cn(CCC3CCCCC3)nn2)cc1`, `Nc1ccc(-c2cccs2)cc1NC(=O)c1cn(CC2CCCCC2)nn1` is lower in inhibition: 7% for the first, 1% for the second.

`Nc1ccc(-c2ccc(F)cc2)cc1NC(=O)c1cn(CCc2ccc(C(F)(F)F)cc2)nn1` and `Nc1ccc(-c2ccc(F)cc2)cc1NC(=O)c1cn(CCc2ccc(F)cc2)nn1` are the same in inhibition: 0% for the first, 0% for the second.

First: Nc1ccc(-c2cccs2)cc1NC(=O)CCc1cn(Cc2ccc(C(=O)O)cc2)nn1
Second: Nc1ccc(-c2cccnc2)cc1NC(=O)CCc1cn(CCc2ccc(C(=O)O)cc2)nn1
The inhibition of the first is higher: 31% for the first, 9% for the second.

First: Nc1ccc(-c2cccs2)cc1NC(=O)c1cccc(-c2cn(CCc3ccccn3)nn2)c1
Second: Nc1ccc(-c2cccs2)cc1NC(=O)c1cccc(-c2cn(CCc3ccccc3)nn2)c1
The inhibition of the first is higher: 33% for the first, 17% for the second.

Compared with `Nc1ccc(-c2ccsc2)cc1NC(=O)CCc1cn(CCc2ccc(C(F)(F)F)cc2)nn1`, `Cc1ccc(CCn2cc(CCC(=O)Nc3cc(-c4ccsc4)ccc3N)nn2)cc1` is higher in inhibition: 2% for the first, 24% for the second.

Going from `Nc1ccc(-c2ccsc2)cc1NC(=O)CCc1cn(Cc2ccc3ccccc3c2)nn1` to `Nc1ccc(-c2ccccc2)cc1NC(=O)CCc1cn(Cc2ccc3ccccc3c2)nn1`, the inhibition falls from 16% to 11%.

`Nc1ccc(-c2cccs2)cc1NC(=O)c1cn(Cc2ccc(-c3ccccc3)cc2)nn1` and `Nc1ccc(-c2ccc(F)cc2)cc1NC(=O)c1cn(Cc2ccc(-c3ccccc3)cc2)nn1` are the same in inhibition: 0% for the first, 0% for the second.

Compared with `COc1ccccc1CCn1cc(C(=O)Nc2cc(-c3ccccc3)ccc2N)nn1`, `Nc1ccc(-c2ccccc2)cc1NC(=O)c1cn(Cc2cccc3ccccc23)nn1` is higher in inhibition: 0% for the first, 2% for the second.

`Nc1ccc(-c2ccccc2)cc1NC(=O)CCc1cn(Cc2ccc(Oc3ccccc3)cc2)nn1` and `Nc1ccc(-c2ccc(F)cc2)cc1NC(=O)CCc1cn(Cc2cccc(-c3ccccc3)c2)nn1` are the same in inhibition: 0% for the first, 0% for the second.

Going from `COc1ccc(CCn2cc(C(=O)Nc3cc(-c4ccsc4)ccc3N)nn2)cc1` to `Nc1ccc(-c2ccsc2)cc1NC(=O)CCc1cn(CCc2ccc(Cl)cc2)nn1`, the inhibition falls from 6% to 2%.

Compared with `COc1ccc(CCn2cc(-c3ccc(C(=O)Nc4cc(-c5cccs5)ccc4N)s3)nn2)cc1`, `Nc1ccc(-c2cccs2)cc1NC(=O)c1ccc(-c2cn(CCc3ccc([N+](=O)[O-])cc3)nn2)cc1` is higher in inhibition: 30% for the first, 42% for the second.

`Nc1ccc(-c2ccsc2)cc1NC(=O)c1cn(Cc2cccc(-c3ccccc3)c2)nn1` and `Nc1ccc(-c2cccs2)cc1NC(=O)CCc1cn(Cc2cccc(-c3ccccc3)c2)nn1` are the same in inhibition: 0% for the first, 0% for the second.

Going from `Nc1ccc(-c2ccccc2)cc1NC(=O)CCc1cn(CC(=O)Nc2ccc(F)cc2)nn1` to `Nc1ccc(-c2ccccc2)cc1NC(=O)CCc1cn(CCc2ccc([N+](=O)[O-])cc2)nn1`, the inhibition rises from 11% to 13%.

Going from `Nc1ccc(-c2ccsc2)cc1NC(=O)CCc1cn(CCc2ccccn2)nn1` to `Nc1ccc(-c2ccsc2)cc1NC(=O)CCc1cn(CCc2ccccc2)nn1`, the inhibition rises from 12% to 43%.

Compared with `Nc1ccc(-c2cccs2)cc1NC(=O)c1cccc(-c2cn(Cc3ccc(Oc4ccccc4)cc3)nn2)c1`, `Nc1ccc(-c2cccs2)cc1NC(=O)c1cccc(-c2cn(Cc3ccc(C(=O)O)cc3)nn2)c1` is higher in inhibition: 0% for the first, 55% for the second.

Compared with `Nc1ccc(-c2ccc(F)cc2)cc1NC(=O)c1cn(CCc2ccccn2)nn1`, `Nc1ccc(-c2ccc(F)cc2)cc1NC(=O)c1cn(CCc2cccc(F)c2)nn1` is lower in inhibition: 16% for the first, 0% for the second.

`Nc1ccc(-c2cccs2)cc1NC(=O)c1cccc(-c2cn(CCc3cccc(Cl)c3)nn2)c1` and `Nc1ccc(-c2cccs2)cc1NC(=O)c1cccc(-c2cn(CCc3ccccc3Cl)nn2)c1` are the same in inhibition: 0% for the first, 0% for the second.

`Nc1ccc(-c2cccs2)cc1NC(=O)c1cccc(-c2cn(-c3ccccc3-c3ccccc3)nn2)c1` and `Nc1ccc(-c2ccccc2)cc1NC(=O)c1cn(-c2ccccc2-c2ccccc2)nn1` are the same in inhibition: 0% for the first, 0% for the second.

Compared with `Cc1cccc(C)c1NC(=O)Cn1cc(C(=O)Nc2cc(-c3ccsc3)ccc2N)nn1`, `Cc1cccc(C)c1NC(=O)Cn1cc(CCC(=O)Nc2cc(-c3cccs3)ccc2N)nn1` is lower in inhibition: 24% for the first, 19% for the second.

Going from `Nc1ccc(-c2cccs2)cc1NC(=O)c1ccc(-c2cn(CCc3c[nH]c4ccccc34)nn2)cc1` to `Nc1ccc(-c2cccs2)cc1NC(=O)c1ccc(-c2cn(Cc3cc4ccccc4s3)nn2)cc1`, the inhibition falls from 19% to 0%.

First: Nc1ccc(-c2ccccc2)cc1NC(=O)CCc1cn(Cc2nc3ccccc3[nH]2)nn1
Second: Nc1ccc(-c2ccccc2)cc1NC(=O)CCc1cn(CCc2cccc3ccccc23)nn1
The inhibition of the first is higher: 27% for the first, 0% for the second.

Compared with `Cc1cccc(CCn2cc(CCC(=O)Nc3cc(-c4ccsc4)ccc3N)nn2)c1`, `Nc1ccc(-c2ccc(F)cc2)cc1NC(=O)CCc1cn(CCc2c[nH]c3ccccc23)nn1` is higher in inhibition: 26% for the first, 30% for the second.

Going from `Nc1ccc(-c2cccs2)cc1NC(=O)c1cccc(-c2cn(CCc3ccccc3[N+](=O)[O-])nn2)c1` to `Nc1ccc(-c2cccs2)cc1NC(=O)c1cccc(-c2cn(/C=C/c3ccccc3)nn2)c1`, the inhibition rises from 0% to 10%.

First: Cc1ccc(-n2cc(CCC(=O)Nc3cc(-c4cccs4)ccc3N)nn2)cc1C
Second: Nc1ccc(-c2cccs2)cc1NC(=O)CCc1cn(-c2ccc(O)cc2)nn1
The inhibition of the first is lower: 0% for the first, 12% for the second.

`Nc1ccc(-c2ccc(F)cc2)cc1NC(=O)CCc1cn(CC23CC4CC(CC(C4)C2)C3)nn1` and `Nc1ccc(-c2ccc(F)cc2)cc1NC(=O)CCc1cn(-c2ccc(I)cc2)nn1` are the same in inhibition: 0% for the first, 0% for the second.

First: Cc1cccc(C)c1NC(=O)Cn1cc(-c2ccc(C(=O)Nc3cc(-c4cccs4)ccc3N)s2)nn1
Second: CCc1ccc(Cn2cc(C(=O)Nc3cc(-c4cccs4)ccc3N)nn2)cc1
The inhibition of the first is higher: 48% for the first, 13% for the second.

Compared with `Nc1ccc(-c2ccc(F)cc2)cc1NC(=O)c1cn(Cc2cccc(C(=O)O)c2)nn1`, `Nc1ccc(-c2ccc(F)cc2)cc1NC(=O)c1cn(CCc2ccc(C(=O)O)cc2)nn1` is higher in inhibition: 0% for the first, 31% for the second.

`Nc1ccc(-c2ccccc2)cc1NC(=O)c1cn(CS(=O)(=O)c2ccccc2)nn1` and `Nc1ccc(-c2cccs2)cc1NC(=O)c1cn(CCc2ccccn2)nn1` are the same in inhibition: 0% for the first, 0% for the second.

Compared with `Nc1ccc(-c2ccc(F)cc2)cc1NC(=O)CCc1cn(-c2ccc([N+](=O)[O-])cc2)nn1`, `Nc1ccc(-c2ccc(F)cc2)cc1NC(=O)CCc1cn(-c2ccc(O)cc2)nn1` is lower in inhibition: 7% for the first, 3% for the second.

Going from `Cc1ccc(-n2cc(C(=O)Nc3cc(-c4ccsc4)ccc3N)nn2)cc1C` to `Nc1ccc(-c2ccc(F)cc2)cc1NC(=O)c1cn(CC2CCCCC2)nn1`, the inhibition rises from 0% to 3%.

`Nc1ccc(-c2cccs2)cc1NC(=O)c1ccc(-c2cn(CCc3ccc(C(F)(F)F)cc3)nn2)cc1` and `Nc1ccc(-c2cccs2)cc1NC(=O)c1ccc(-c2cn(CCN3CCc4ccccc4C3)nn2)cc1` are the same in inhibition: 0% for the first, 0% for the second.

Molecule `Nc1ccc(-c2cccs2)cc1NC(=O)c1cccc(-c2cn(CCN3CCOCC3)nn2)c1` has an inhibition of 48%.
